How the values were obtained:
SIRT1 = SIRT1 transcription, semi-quantitative RT-PCR in human epidermal progenitors; assay type: cell-based; settings: 72 h
In short: (§1)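 Human neonatal epidermal progenitors in Epilife (60 μM CaCl2) treated 72 h with decapeptides at 10, 30, 50, 100 and 300 μM (0.05% final DMSO). cDNA from 2 μg total RNA; semi-quantitative PCR, 34 cycles, with band densitometry on agarose gels expressed as ratio to 18S.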

SIRT2 = SIRT2 transcription, semi-quantitative RT-PCR in human epidermal progenitors; assay type: cell-based; settings: 72 h
In short: as §1

SIRT3 = SIRT3 transcription, semi-quantitative RT-PCR in human epidermal progenitors; assay type: cell-based; settings: 72 h
In short: as §1

SIRT4 = SIRT4 transcription, semi-quantitative RT-PCR in human epidermal progenitors; assay type: cell-based; settings: 72 h
SIRT6 = SIRT6 transcription, semi-quantitative RT-PCR in human epidermal progenitors; assay type: cell-based; settings: 72 h
In short: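 Following a 72 hour treatment, cells were trypsinized and RNA isolated with an RNeasy kit. cDNA was made from 2 μg RNA using oligo dT and TaqMan reagents, then SIRT6 and 18S were amplified for 34 cycles. Products ran on 1.5 percent agarose gels with ethidium bromide; densitometry gave SIRT6/18S intensity ratios compared against vehicle-treated controls.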

SIRT7 = SIRT7 transcription, semi-quantitative RT-PCR in human epidermal progenitors; assay type: cell-based; settings: 72 h
In short: as §1

in vitro = assay type: cell-based; settings: human, human epidermal progenitors
In short: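 Epidermal progenitors were seeded at 2.5×10^4/well and kept at 37 °C in 5% CO2. Proliferation was measured by MTT.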

[1] = MTT cell proliferation assay, melanoblasts; assay type: cell-based, human; settings: human, MTT, 72 h, read-out: melanoblast proliferation rate after 72 hours
Experimental: (§2) Proliferation rates for three human cell lines (epidermal progenitors, melanoblasts, and fibroblasts) were determined using a TACS® MTT Cell Proliferation Kit. Cells were seeded at 2.5×10^4/well in 96-well plates in a humidified atmosphere with 5 percent CO2 at 37 degrees Celsius. Twenty-four hours later, the decapeptides were added to the corresponding wells at varying concentrations and incubated for 72 hours. The remainder of the procedure was performed following the manufacturer's protocol.

[2] = MTT cell proliferation assay, fibroblasts; assay type: cell-based, human; settings: human, MTT, 72 h, read-out: fibroblast proliferation rate after 72 hours
Experimental: as §2

Ac-YRSRKYSSWY-NH2 [P4C, Acetyl-YRSRKYSSWY-amide]
SIRT1 transcription increase relative to control (SIRT1; 10 μM): 7 ± 3% | SIRT1 transcription increase relative to control (SIRT1; 30 μM): 5.00% | SIRT1 transcription increase relative to control (SIRT1; 50 μM): 1.00% | SIRT1 transcription increase relative to control (SIRT1; 100 μM): 137 ± 8% | SIRT1 transcription increase relative to control (SIRT1; 300 μM): 190 ± 9% | SIRT2 transcription increase relative to control (SIRT2; 10 μM): 5.00% | SIRT2 transcription increase relative to control (SIRT2; 30 μM): 2 ± 1% | SIRT2 transcription increase relative to control (SIRT2; 50 μM): 1.00% | SIRT2 transcription increase relative to control (SIRT2; 100 μM): 42 ± 1% | SIRT2 transcription increase relative to control (SIRT2; 300 μM): 31 ± 9% | SIRT3 transcription increase relative to control (SIRT3; 10 μM): 8 ± 3% | SIRT3 transcription increase relative to control (SIRT3; 30 μM): 6 ± 2% | SIRT3 transcription increase relative to control (SIRT3; 50 μM): 45 ± 9% | SIRT3 transcription increase relative to control (SIRT3; 100 μM): 82 ± 8% | SIRT3 transcription increase relative to control (SIRT3; 300 μM): 159 ± 6% | SIRT4 transcription increase relative to control (SIRT4; 10 μM): 3 ± 1% | SIRT4 transcription increase relative to control (SIRT4; 30 μM): 3 ± 1% | SIRT4 transcription increase relative to control (SIRT4; 50 μM): 11 ± 6% | SIRT4 transcription increase relative to control (SIRT4; 100 μM): 32 ± 9% | SIRT4 transcription increase relative to control (SIRT4; 300 μM): 67 ± 9% | SIRT6 transcription increase relative to control (SIRT6; 10 μM): 12 ± 3% | SIRT6 transcription increase relative to control (SIRT6; 30 μM): 9 ± 4% | SIRT6 transcription increase relative to control (SIRT6; 50 μM): 31 ± 5% | SIRT6 transcription increase relative to control (SIRT6; 100 μM): 124 ± 7% | SIRT6 transcription increase relative to control (SIRT6; 300 μM): 87 ± 3% | SIRT7 transcription increase relative to control (SIRT7; 10 μM): 14 ± 5% | SIRT7 transcription increase relative to control (SIRT7; 30 μM): 7 ± 2% | SIRT7 transcription increase relative to control (SIRT7; 50 μM): 46 ± 5% | SIRT7 transcription increase relative to control (SIRT7; 100 μM): 80 ± 11% | SIRT7 transcription increase relative to control (SIRT7; 300 μM): 130 ± 9% | viability at 72 h, 3 µM (in vitro): 99 ± 1% | viability at 72 h, 10 µM (in vitro): 99 ± 1% | viability at 72 h, 30 µM (in vitro): 98 ± 1% | viability at 72 h, 50 µM (in vitro): 98 ± 1% | viability at 72 h, 100 µM (in vitro): 97 ± 1% | viability at 72 h, 300 µM (in vitro): 97 ± 1% | viability at 72 h, 500 µM (in vitro): 96 ± 2% | viability at 72 h, 1000 µM (in vitro): 96 ± 2% | viability at 72 h, 3 µM ([1]; 3 μM): 100% | viability at 72 h, 10 µM ([1]; 10 μM): 100% | viability at 72 h, 30 µM ([1]; 30 μM): 99 ± 1% | viability at 72 h, 50 µM ([1]; 50 μM): 98 ± 1% | viability at 72 h, 100 µM ([1]; 100 μM): 97 ± 2% | viability at 72 h, 300 µM ([1]; 300 μM): 96 ± 3% | viability at 72 h, 500 µM ([1]; 500 μM): 95 ± 2% | viability at 72 h, 1000 µM ([1]; 1000 μM): 95 ± 2% | viability at 72 h, 3 µM ([2]; 3 μM): 100% | viability at 72 h, 10 µM ([2]; 10 μM): 99 ± 1% | viability at 72 h, 30 µM ([2]; 30 μM): 99 ± 1% | viability at 72 h, 50 µM ([2]; 50 μM): 99 ± 1% | viability at 72 h, 100 µM ([2]; 100 μM): 98 ± 2% | viability at 72 h, 300 µM ([2]; 300 μM): 97 ± 2% | viability at 72 h, 500 µM ([2]; 500 μM): 96 ± 2% | viability at 72 h, 1000 µM ([2]; 1000 μM): 96 ± 2%

Source: patent US20180296456A1, “Decapeptide-12 Modulation of Sirtuin Gene Expression in Epidermal Keratinocyte Progenitors” (Escape Therapeutics, Inc., priority 2017, published 2018)
